Results: US7649093B2, “Naphthalene compounds as selective estrogen receptor modulators” (Glaxo Smith Kline LLC, priority 2004, dated 2010)

With CCCCCCCCc1cc2cc(O)ccc2c(Oc2ccc(/C=C/C(=O)O)cc2)c1-c1ccccc1 [Example 29, (2E)-3-{4-[(6-Hydroxy-3-octyl-2-phenyl-1-naphthalenyl)oxy]phenyl}-2-propenoic acid] the melting point was 163 to 164 °C. CCCc1cc2cc(O)c(F)cc2c(Oc2ccc(/C=C/C(N)=O)cc2)c1-c1ccccc1 [Example 25, (2E)-3-{4-[(7-Fluoro-6-hydroxy-2-phenyl-3-propyl-1-naphthalenyl)oxy]phenyl}-2-propenamide] gave a melting point of 121 to 124 °C. For CCc1cc2cc(O)ccc2c(Oc2ccc(/C=C/C(=O)N3CCN(C)CC3)cc2)c1-c1ccccc1 [Example 12, 7-Ethyl-5-({4-[(1E)-3-(4-methyl-1-piperazinyl)-3-oxo-1-propen-1-yl]phenyl}oxy)-6-phenyl-2-naphthalenol], the melting point was 195 to 196 °C. In the case of O=C(O)/C=C/c1ccc(Oc2c(-c3ccccc3)c(CCC(F)(F)F)cc3cc(O)ccc23)cc1 [Example 19, (2E)-3-(4-{[6-Hydroxy-2-phenyl-3-(3,3,3-trifluoropropyl)-1-naphthalenyl]oxy}phenyl)-2-propenoic acid], the melting point is reported as 118 to 120 °C. O=C(O)c1ccc(Oc2c(-c3ccc(O)cc3)c(C(F)(F)F)cc3ccccc23)cc1 [Example 28, 4-{[2-(4-Hydroxyphenyl)-3-(trifluoromethyl)-1-naphthalenyl]oxy}benzoic acid] gave a melting point of 244 to 245 °C. Work on COCc1cc2ccccc2c(Oc2ccc(/C=C/C(=O)O)cc2)c1-c1ccccc1 yielded a melting point of 76 to 79 °C. For O=C(O)/C=C/c1ccc(Oc2c(-c3ccccc3)c(C3CC3)cc3cc(O)ccc23)cc1 [Example 22, (2E)-3-{4-[(3-Cyclopropyl-6-hydroxy-2-phenyl-1-naphthalenyl)oxy]phenyl}-2-propenoic acid], the melting point was 242 to 243 °C. In the case of CCc1cc2cc(O)ccc2c(Oc2ccc(/C=C/C(=O)O)cc2)c1-c1ccccc1 [Example 11, (2E)-3-{4-[(3-Ethyl-6-hydroxy-2-phenyl-1-naphthalenyl)oxy]phenyl}-2-propenoic acid], the melting point is reported as 188 to 190 °C. CCCCc1cc2ccccc2c(Oc2ccc(/C=C/C(=O)O)cc2)c1-c1ccc(F)cc1 [Example 24, (2E)-3-(4-{[3-Butyl-2-(4-fluorophenyl)-1-naphthalenyl]oxy}phenyl)-2-propenoic acid] showed a melting point of 169 to 170 °C. Work on Cc1cc2cc(O)ccc2c(Oc2ccc(/C=C/C(=O)O)cc2)c1-c1ccc(O)cc1 [Example 10, (2E)-3-(4-{[6-Hydroxy-2-(4-hydroxyphenyl)-3-methyl-1-naphthalenyl]oxy}phenyl)-2-propenoic acid] yielded a melting point of 162 to 164 °C. Work on CCCCCc1cc2cc(O)ccc2c(Oc2ccc(/C=C/C(=O)O)cc2)c1-c1ccccc1 [Example 18, (2E)-3-{4-[(6-Hydroxy-3-pentyl-2-phenyl-1-naphthalenyl)oxy]phenyl}-2-propenoic acid] yielded a melting point of 110 to 113 °C. Work on CCCCc1cc2ccccc2c(Oc2ccc(/C=C/C(=O)O)cc2)c1-c1ccc(O)cc1 yielded a melting point of 107 to 109 °C. CCCCc1cc2cc(O)ccc2c(Oc2ccc(/C=C/C(=O)O)cc2)c1-c1ccccc1 [Example 14, (2E)-3-{4-[(3-Butyl-6-hydroxy-2-phenyl-1-naphthalenyl)oxy]phenyl}-2-propenoic acid] gave a melting point of 128 to 130 °C. With CCCc1cc2cc(O)c(F)cc2c(Oc2ccc(/C=C/C(=O)O)cc2)c1-c1ccccc1 [Example 20, (2E)-3-{4-[(7-Fluoro-6-hydroxy-2-phenyl-3-propyl-1-naphthalenyl)oxy]phenyl}-2-propenoic acid] the melting point was 118 to 120 °C. CCCc1cc2cc(O)ccc2c(Oc2ccc(/C=C/C(=O)O)cc2)c1-c1ccccc1 [Example 16, (2E)-3-{4-[(6-Hydroxy-2-phenyl-3-propyl-1-naphthalenyl)oxy]phenyl}-2-propenoic acid] gave a melting point of 120 to 122 °C. Work on CC(C)c1cc2cc(O)ccc2c(Oc2ccc(/C=C/C(=O)O)cc2)c1-c1ccccc1 [Example 13, (2E)-3-(4-{[6-Hydroxy-3-(1-methylethyl)-2-phenyl-1-naphthalenyl]oxy}phenyl)-2-propenoic acid] yielded a melting point of 198 to 199 °C. Compound O=C(O)/C=C/c1ccc(Oc2c(-c3ccccc3)c(C(F)(F)F)cc3ccccc23)cc1 [Example 27, (2E)-3-(4-{[2-Phenyl-3-(trifluoromethyl)-1-naphthalenyl]oxy}phenyl)-2-propenoic acid] has a melting point of 210 to 211 °C. In the case of Cc1cc2ccccc2c(Oc2ccc(/C=C/C(=O)O)cc2)c1-c1ccccc1 [Example 15, (2E)-3-{4-[(3-Methyl-2-phenyl-1-naphthalenyl)oxy]phenyl}-2-propenoic acid], the melting point is reported as 224 to 225 °C. Work on CC(C)Cc1cc2cc(O)ccc2c(Oc2ccc(/C=C/C(=O)O)cc2)c1-c1ccccc1 [Example 17, (2E)-3-(4-{[6-Hydroxy-3-(2-methylpropyl)-2-phenyl-1-naphthalenyl]oxy}phenyl)-2-propenoic acid] yielded a melting point of 126 to 128 °C. Work on CCCCc1cc2ccccc2c(Oc2ccc(/C=C/C(=O)O)cc2)c1-c1ccccc1 [Example 26, (2E)-3-{4-[(3-Butyl-2-phenyl-1-naphthalenyl)oxy]phenyl}-2-propenoic acid] yielded a melting point of 160 to 161 °C.
